Assay results reported in patent US20260250318A1, “COMPOSITIONS AND METHODS FOR CROSSING THE BLOOD BRAIN BARRIER” (VOYAGER THERAPEUTICS, INC., priority 2022, published 2026).

Legend:
Conditions in all cases: synthetic library passage 3, intravenous, relative to wild-type AAV9
[1] = system: brain, spinal cord, and DRG of the NHPs; assay: NGS fold enrichment of synthetic library (passage 3) in NHPs, first cross-species screen; format: in vivo, cynomolgus macaques (Macaca fascicularis)
How it was run: (§1)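 Fold enrichment versus wild-type AAV9 was derived by NGS of RT-PCR-amplified RNA from nervous tissue, collected e.g. 28 days after IV dosing […]. The library (passage 3) was given to two NHPs aged 2-4 years and to 6-8-week BALB/c and C57Bl/6 mice (n=3 each).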

[2] = system: brain; assay: NGS fold enrichment of synthetic library (passage 3) in BALB/c mice, first cross-species screen; format: in vivo
How it was run: as §1

[3] = system: brain; assay: NGS fold enrichment of synthetic library (passage 3) in C57Bl/6 mice, first cross-species screen; format: in vivo
How it was run: as §1

[4] = RNA from spinal cord of NHPs, NGS
[5] = RNA from brain of BALB/c mice, NGS
[6] = RNA from brain of C57Bl/6 mice, NGS

Row | Sequence | Fold enrichment over AAV9 in the brain of NHPs ([1]; RNA NGS, brain of NHPs) [fold] | Fold enrichment over AAV9 in the spinal cord of NHPs ([1]; RNA NGS, spinal cord of NHPs) [fold] | Fold enrichment over AAV9 in the brain of Mice (BALB/c) ([2]; RNA NGS, brain of BALB/c mice) [fold] | Fold enrichment over AAV9 in the brain of Mice (C57Bl/6) ([3]; RNA NGS, brain of C57Bl/6 mice) [fold] | Fold enrichment over AAV9 in the brain of NHPs ([1]; RNA from brain of NHPs, NGS) [fold] | Fold enrichment over AAV9 in the spinal cord of NHPs [1, 4] [fold] | Fold enrichment over AAV9 in the brain of Mice (BALB/c) [2, 5] [fold] | Fold enrichment over AAV9 in the brain of Mice (C57Bl/6) [3, 6] [fold]
1 | GNIQWQGSGQNQQT | 2.468 | 6.266 | 0.837 | 1.182 |  |  |  | 
2 | GNRDRPSSGQNQQT |  |  |  |  | 1.239 | 3.947 | 0.178 | 0.298
3 | GNSMERTSGQNQQT | 2.221 | 4.177 | 0.935 | 1.047 |  |  |  | 
4 | GNSQVKVSGQNQQT |  |  |  |  | 1.158 | 4.930 | 0.728 | 1.422
5 | GNSSMMGSGQNQQT |  |  |  |  | 1.239 | 3.856 | 0.364 | 0.656
6 | GNVTTQKSGQNQQT | 1.122 | 2.546 | 0.922 | 1.215 |  |  |  | 
7 | GNYLHQASGQNQQT | 1.635 | 1.454 | 0.181 | 0.816 |  |  |  | 
8 | GPAQHGTSGQNQQT |  |  |  |  | 1.407 | 0.866 | 0.615 | 1.030
9 | GPASLPISGQNQQT |  |  |  |  | 1.386 | 9.008 | 0.155 | 0.312
10 | GPDRIGSSGQNQQT |  |  |  |  | 1.308 | 0.426 | 0.342 | 0.654
11 | GPFGMPSSGQNQQT | 2.260 | 2.700 | 0.560 | 0.727 |  |  |  | 
12 | GPGLGSHSGQNQQT | 1.906 | 14.563 | 1.195 | 0.880 |  |  |  | 
13 | GPGLPNHSGQNQQT | 2.486 | 1.992 | 0.659 | 1.197 |  |  |  | 
14 | GPGLSGHSGQNQQT | 1.571 | 1.603 | 1.297 | 1.154 |  |  |  | 
15 | GPGSAHSSGQNQQT | 1.785 | 4.392 | 0.872 | 1.099 |  |  |  | 
16 | GPLVNASSGQNQQT | 1.434 | 5.239 | 0.343 | 0.831 |  |  |  | 

Row | Sequence | Fold enrichment over AAV9 in the brain of NHPs ([1]; RNA NGS, brain of NHPs) [fold] | Fold enrichment over AAV9 in the spinal cord of NHPs ([1]; RNA NGS, spinal cord of NHPs) [fold] | Fold enrichment over AAV9 in the brain of Mice (BALB/c) ([2]; RNA NGS, brain of BALB/c mice) [fold] | Fold enrichment over AAV9 in the brain of Mice (C57Bl/6) ([3]; RNA NGS, brain of C57Bl/6 mice) [fold] | Fold enrichment over AAV9 in the brain of NHPs ([1]; RNA from brain of NHPs, NGS) [fold] | Fold enrichment over AAV9 in the spinal cord of NHPs [1, 4] [fold] | Fold enrichment over AAV9 in the brain of Mice (BALB/c) [2, 5] [fold] | Fold enrichment over AAV9 in the brain of Mice (C57Bl/6) [3, 6] [fold]
17 | GPNSYPVSGQKQQT |  |  |  |  | 1.381 | 4.040 | 0.834 | 0.736
18 | GPPQHMTSGQNQQT | 1.457 | 1.547 | 0.677 | 0.509 |  |  |  | 
19 | GPRLSDQSGQNQQT | 1.511 | 0.364 | 0.579 | 0.640 |  |  |  | 
20 | GPTNGRSSGQNQQT | 2.034 | 8.903 | 1.308 | 0.936 |  |  |  | 
21 | GQIVQNPSGQNQQT | 3.133 | 0.406 | 0.635 | 1.446 |  |  |  | 
22 | GQLGSVGSGQDQQT |  |  |  |  | 1.196 | 0.000 | 0.437 | 1.020
23 | GQLVTFTSGQNQQT |  |  |  |  | 1.331 | 11.282 | 0.294 | 0.819
24 | GRAPTNLSGQNQQT | 1.118 | 0.687 | 0.169 | 0.757 |  |  |  | 
25 | GRAVMDHSGQNQQT | 2.408 | 3.209 | 0.283 | 0.728 |  |  |  | 
26 | GREYGHKSGQNQQT | 3.453 | 0.000 | 0.959 | 1.422 |  |  |  | 
27 | GRGAVMASGQNQQT | 1.072 | 0.923 | 0.605 | 0.783 |  |  |  | 
28 | GRGGIPQSGQNQQT | 2.352 | 8.683 | 1.181 | 1.639 |  |  |  | 
29 | GRGGSMAETQNQQT | 1.024 | 2.853 | 0.669 | 0.799 |  |  |  | 
30 | GRGPKQSNIQNQQT |  |  |  |  | 1.125 | 0.737 | 2.490 | 0.771
31 | GRGQHVSVANNQQT |  |  |  |  | 1.152 | 1.896 | 0.589 | 1.032
